# US8796323B2, “Defensin-like molecules as novel antimicrobial agents” (University of Maryland, Baltimore, priority 2010, dated 2014)
# Entries after “also recorded” stand apart in the source; their conditions may differ.
# Key:
# [1] = ANTS/DPX leakage assay from large unilamellar vesicles
# Experimental: Large unilamellar vesicles (LUVs) with the low molecular weight fluorophore/quencher pair (ANTS/DPX) encapsulated were prepared using the standard extrusion method. Specifically, phospholipids were dissolved in chloroform at a desired molar ratio, dried as a film by solvent evaporation. After removal of residual solvent, the lipid film was hydrated in the fluorescent solution containing 5 mM HEPES, 12.5 mM ANTS, 45 mM DPX, and 20 mM NaCl, pH 7.0, freeze-thawed for 10 cycles and extruded 10 times through 0.4-μm polycarbonate membranes. LUVs were separated from unencapsulated materials by gel filtration chromatography using a Sepharose CL-4B column eluted with 5 mM HEPES, 100 mM NaCl, pH 7.4 (high-salt). For leakage assays in a low-salt buffer, purified vesicles were further diluted with 5 mM HEPES containing 10 mM NaCl, pH 7.4.
# Leakage of ANTS from LUVs, monitored on a LS-55 Perkin Elmer luminescence spectrometer, was characterized by an increase in fluorescence, which was quenched by DPX when encapsulated together inside liposomes (Ellens, H., et al., 1985, “H+- and Ca2+-induced fusion and destabilization of liposomes,” Biochemistry 24:3099-3106). 270 μl ANTS/DPX-encapsulated LUVs (in either high-salt or low-salt buffers) were added to each well of a 96-well plate to a final lipid concentration of 600 μM. 30 μl H2O was added to the first well of each row as a blank, and 30 μl 2.5% (v/v) Triton X-100 to the last (twelfth) well as the control for 100% leakage. Upon addition of 30 μl of a twofold dilution series of defensin, the fluorescence signal was recorded at 515 nm with an excitation wavelength of 353 nm, 10 nm bandwidths and a 390 nm cut-off filter in the emission path. Percent leakage is expressed as: % leakage=((Ft−F0)/(F100−F0))×100 where Ft is the fluorescence determined at different time points after addition of defensin, F0 is the background fluorescence of the “blank” cells, and F100 is the fluorescence of the control cells containing 0.25% Triton X-100. Lipid II Purification
# Defensins are believed to kill bacteria by permeabilizing the membrane, causing leakage of intracellular content and eventually cell lysis and death. The present inventors tested the ability of six human α-defensins to induce leakage of fluorophores encapsulated in LUVs (See FIG. 1). […] (A) At high salt concentration (5 mM HEPES, 100 mM NaCl, pH 7.4). (B) At low salt concentration (5 mM HEPES, 10 mM NaCl, pH 7.4). LUVs were 250 nm in diameter and 600 μM (phospholipids) in concentration.
# (A) Effects of surface charge on HNP1-induced leakage from LUVs of four different compositions: POPC (circle, surface charge=0), POPC/POPG=3:2 (square, surface charge=−0.4), POPC/POPG=2:3 (triangle, surface charge=−0.6), and POPG (diamond, surface charge=−1). (B) LUV (POPG:DPPC 1:1) leakage induced by L-HNP1 (circles) or D-HNP1 (squares). A two-fold dilution series of HNP1 peptides from 0.19 to 100 μg/ml was incubated with 600 μM LUVs for one hour before readings were taken. Error bars indicate the standard error in triplicate experiments.
# [2] = system: Staphylococcus aureus ATCC 29213; test: 96-well turbidimetric antibacterial activity assay of HNP1, with or without Lipid II synthesis inhibitors; type: cell-based
# Experimental: The antibacterial activity of HNP1 against Staphylococcus aureus ATCC 29213 was carried out in a 96-well turbidimetric assay essentially as described in Ericksen, B., et al., 2005, “Antibacterial activity and specificity of the six human {alpha}-defensins.” Lipid II levels in S. aureus were manipulated by the addition of three different inhibitors of cell wall synthesis: bacitracin (250 μg/ml), D-cycloserine (64 μg/ml) and fosfomycine (250 μg/ml). Bacterial cultures were pretreated with these compounds for 30 min under shaking at 37° C. […] Bacterial growth was monitored for 12 hours and data were analyzed as described.
# To examine whether the observed interaction between HNP1 and Lipid II is functionally relevant in the environment of the membrane, the inventors determined the ability of HNP1 to kill S. aureus with altered levels of Lipid II. Three different inhibitors of cell wall synthesis, fosfomycine, D-cycloserine, and bacitracin, were used to reduce the lipid II levels in S. aureus cells. Bacitracin binds directly to undecaprenyl pyrophosphate, the portion of lipid II that remains in the membrane once GlcNAc-MurNAc is polymerized, and prevents its use in subsequent cycles of lipid II synthesis. Fosfomycine is an inhibitor of MurA, the enzyme responsible for the first step in peptidoglycan synthesis. D-Cycloserine inhibits both alanine racemase and D-Ala-D-Ala ligase, two enzymes required for the synthesis of the D-Ala-D-Ala dipeptide of lipid II. All three inhibitors thus block the synthesis of lipid II (Lunde, C. S., et al., 2009, “Telavancin disrupts the functional integrity of the bacterial membrane through targeted interaction with the cell wall precursor lipid II,” Antimicrob Agents Chemother 53:3375-3383.) S. aureus cells were exposed to each of the Lipid II synthesis inhibitors for 30 min and subsequently exposed to HNP1 at concentrations ranging from 256 to 1 μg/ml for 15 min (FIG. 4).
# Survival curves of S. aureus ATCC 29213 exposed to HNP1 at concentrations varying two-fold from 1 to 256 μg/ml. […] Points scored as zero survival could not be plotted.
# S. aureus = conditions: literature (Ericksen 2005; Wei 2009); cited from earlier work
substance,measurement,setting,value
"HNP1: α-defensin Human Neutrophil Peptide 1, chemically synthesized and folded","leakage from LUVs, L- versus D-enantiomer","[1]; DPPC/POPG (1:1) LUVs, FIG. 2B",equally efficiently
same,HNP1-induced leakage from LUVs composed solely of neutral lipid POPC,"[1]; POPC LUVs, surface charge 0, 0.19 to 100 μg/ml, regardless of incubation time",resistant to the attack by HNP1 at all concentrations used
same,HNP1-induced leakage from LUVs as POPG content increases,"[1]; POPC:POPG 1:0, 3:2, 2:3, 0:1, POPG 0, 40%, 60%, 100%",increasingly pronounced
same,membrane activity (leakage of ANTS-DPX from POPG LUVs),"[1]; POPG LUVs, panel of six human α-defensins, FIG. 1",reduced
same,killing of S. aureus,[2]; 15 min exposure to HNP1,efficiently killed S. aureus
same,"killing of S. aureus by HNP-1 after pre-treatment with Lipid II synthesis inhibitors, 2 hours exposure","[2]; HNP-1 exposure 2 hours, data not shown",no difference in bacterial killing
same,killing of S. aureus by HNP1 after pre-treatment with Lipid II synthesis inhibitors,"[2]; fosfomycine, D-cycloserine, bacitracin 30 min pre-treatment, HNP1 15 min",attenuated killing of S. aureus by HNP1 markedly
same,bactericidal activity against S. aureus / Gram-positive bacteria,S. aureus,potently bactericidal; also recorded: kills Gram-positive bacteria very efficiently
